Laboratory results from patent US11873298B2, “Compounds and uses thereof” (JANSSEN PHARMACEUTICA NV, priority 2017, dated 2024).

Tests used:
[1] = system: U2OS cells transiently overexpressing alpha-synuclein; assay: U2OS transient overexpression induced cytotoxicity assay (ATP content, CellTiter-Glow); type: cell-based, human; settings: 72 hours post transfection
Protocol: U2OS (Sigma-Aldrich), a human bone osteosarcoma epithelial cell line, is regularly maintained in McCoy's 5A medium (ATCC) supplemented with 10% FBS (ThermoFisher) between passage 11-21 and sub -cultured twice a week for the assay.
On the day of experiment, cells are about 80% confluence and trypsinized using 0.25% trypsin-EDTA (ThermoFisher Inc.) for 5 minutes at 37 c. Based on a ratio of 2 ug DNA/2e5 cells, required cells are spun down at 800 rpm for 5 minutes at room temperature. Cells are then re-suspended in SE solution (Lonza Inc.) at a density of 2e4 cells/μl. Nucleofection is performed using 4D-Nucleofector™ System (Lonza Inc.) under program code CM130. Cells are allowed to recover in the cuvette at room temperature for 10-15 minutes before further handling. Pre-warmed medium is added and cells suspension is thoroughly but gently mixed before plating. Cells are seeded at 2e4 cells/100 µl/well into 96 well PLD-coated white plate (Corning) using customized Viaflow program (Integra Biosciences). Serial dilution of drugs is carried out in DMSO. Drug solution is prepared at 6× fold, 20 ul of which is added to cells 4 hours after transfection. The final DMSO concentration is 0.3%. Microclimate lid (Labcyte) is strongly recommended to reduce evaporation and variation. Seventy-two hours post transfection, cells are lysed using CellTiter-Glow (Promega) and ATP content is determined using a luminescence plate reader (Perkin Elmer).
% Maximum fold rescue at each concentration is calculated as follows: […]
FK506 (tacrolimus), a macrolide calcineurin inhibitor, is used as reference compound in the assay.
% Rescue (normalized by max fold rescue of FK506)=(% Fold^αSyn drug-100)*100/(% Max fold^αSyn FK506-100).

[2] = target: T1, yeast OLE1 (Saccharomyces cerevisiae, UniProt P21147); assay: Growth of yeast surviving solely on yeast OLE1; type: cell-based
T1 construct: expressed in transfected cells; host or cells: S. cerevisiae ole1Δ strain (W303 pdr1Δ pdr3Δ background), plasmid pRS316 with TDH3 promoter and CYC1 terminator
T1 sequence (P21147 1-510): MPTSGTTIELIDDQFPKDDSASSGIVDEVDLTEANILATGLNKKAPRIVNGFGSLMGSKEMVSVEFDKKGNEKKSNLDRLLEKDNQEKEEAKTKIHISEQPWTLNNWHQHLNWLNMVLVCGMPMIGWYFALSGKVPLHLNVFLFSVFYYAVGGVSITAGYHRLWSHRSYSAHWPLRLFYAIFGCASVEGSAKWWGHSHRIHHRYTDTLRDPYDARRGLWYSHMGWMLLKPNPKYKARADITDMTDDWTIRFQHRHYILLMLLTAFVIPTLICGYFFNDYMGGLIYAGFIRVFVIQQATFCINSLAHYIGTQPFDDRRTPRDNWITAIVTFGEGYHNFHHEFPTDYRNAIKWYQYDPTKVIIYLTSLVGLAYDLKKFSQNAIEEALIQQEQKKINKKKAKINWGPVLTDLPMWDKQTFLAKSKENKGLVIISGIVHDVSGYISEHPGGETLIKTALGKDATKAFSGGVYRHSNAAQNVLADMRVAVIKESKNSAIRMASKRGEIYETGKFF
Protocol: (§1) FIG. 6 is a series of graphs showing that commercial Scd inhibitors target human SCD1/SCD5 in yeast. Yeast surviving solely on yeast OLE1, or human SCD1 or SCD5, were treated with four commercial Scd inhibitors at indicated concentrations. Data are expressed as a percent of the DMSO-treated condition.
(§2) FIG. 7 is a series of graphs showing that 1,2,4-oxadiazoles target human SCD1 and SCD5. Three “SCD” strains expressing yeast OLE1 or human SCD1 or SCD5 were treated with five representative 1,2,4-oxadiazoles and a cycloheximide toxicity control at concentrations indicated on the log10 x-axis. The y-axis indicates the percent of the DMSO-treated condition. […] Approximately one half of all (250) 1,2,4-oxadiazoles tested inhibited SCD1 or SCD5 in a manner that was reversed by oleic/palmitoleic acid treatment.

[3] = target: T2, SCD1 (Homo sapiens, UniProt O00767); assay: Growth of yeast surviving solely on human SCD1; type: cell-based
T2 construct: host or cells: S. cerevisiae ole1Δ strain (W303 pdr1Δ pdr3Δ background), plasmid pRS316 with TDH3 promoter and CYC1 terminator
T2 sequence (O00767 1-359): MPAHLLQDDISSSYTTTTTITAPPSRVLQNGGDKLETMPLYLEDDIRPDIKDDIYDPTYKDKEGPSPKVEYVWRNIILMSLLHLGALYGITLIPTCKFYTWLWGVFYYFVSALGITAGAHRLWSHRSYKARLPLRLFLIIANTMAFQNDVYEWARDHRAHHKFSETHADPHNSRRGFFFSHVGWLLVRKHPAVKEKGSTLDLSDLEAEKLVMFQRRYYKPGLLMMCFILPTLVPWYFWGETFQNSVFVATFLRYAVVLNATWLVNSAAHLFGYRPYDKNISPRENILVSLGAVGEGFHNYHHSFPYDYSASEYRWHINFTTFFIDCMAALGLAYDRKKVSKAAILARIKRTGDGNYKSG
Protocol: as §1, §2

[4] = target: T3, SCD5 (Homo sapiens, UniProt Q86SK9); assay: Growth of yeast surviving solely on human SCD5; type: cell-based
T3 construct: host or cells: S. cerevisiae ole1Δ strain (W303 pdr1Δ pdr3Δ background), plasmid pRS316 with TDH3 promoter and CYC1 terminator
T3 sequence (Q86SK9 1-330): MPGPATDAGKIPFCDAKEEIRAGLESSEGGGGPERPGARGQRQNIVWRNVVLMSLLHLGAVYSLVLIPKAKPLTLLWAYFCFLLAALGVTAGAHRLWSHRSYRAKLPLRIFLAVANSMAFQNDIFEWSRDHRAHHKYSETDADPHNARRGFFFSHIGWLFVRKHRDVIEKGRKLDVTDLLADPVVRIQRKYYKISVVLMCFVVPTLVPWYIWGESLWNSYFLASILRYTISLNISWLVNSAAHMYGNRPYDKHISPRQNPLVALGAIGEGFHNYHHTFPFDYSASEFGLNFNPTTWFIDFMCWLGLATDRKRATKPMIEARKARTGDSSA
Protocol: as §1, §2

[5] = system: yeast strains expressing the human α-synuclein; settings: reference compound, earlier work; cited from earlier work
[6] = target: T4, Ole1 (Saccharomyces cerevisiae, UniProt P21147); assay: Growth inhibition of yeast strain expressing Ole1 as sole desaturase; type: cell-based; settings: yeast strain expressing Ole1 as sole desaturase
T4 construct: expressed in transfected cells; host or cells: S. cerevisiae ole1Δ strain (W303 pdr1Δ pdr3Δ background), plasmid pRS316 with TDH3 promoter and CYC1 terminator
T4 sequence (P21147 1-510): T1 sequence (P21147 1-510)
Outline: (§3)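 Measured by optical density at 600 nm, growth of desaturase-dependent yeast (OLE1 deleted; human SCD1, human SCD5 or yeast Ole1 supplied from plasmid) was scored after 24 h (Ole1) or 40 h (SCD1, SCD5) at 30° C. in galactose media lacking uracil with DMSO-delivered compound.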

[7] = target: T2, SCD1; assay: Growth inhibition of humanized yeast strain expressing SCD1 as sole desaturase; type: cell-based; settings: humanized yeast strain expressing SCD1
Outline: as §3

[8] = target: T3, SCD5; assay: Growth inhibition of humanized yeast strain expressing SCD5 as sole desaturase; type: cell-based; settings: humanized yeast strain expressing SCD5
Outline: as §3

[9] = system: yeast strains expressing the human ApoE4; assay: Yeast ApoE4 toxicity rescue assay (OD600 growth); settings: 24 h; for EC50: read-out: ApoE4 EC50; for Emax: read-out: ApoE4 Emax
Text: (§4) The induced expression of α-synuclein and ApoE4 confers cytotoxicity, thus enabling the identification of compounds that can restore cell viability. This instantaneous/synchronous induction of α-synuclein and ApoE4 can be achieved due to the following expression control. In glucose-containing media, gene expression from the GAL1 promoter is ‘off’ and actively repressed by additional epigenetic factors. In raffinose, expression is ‘off’, but the promoter not actively repressed. Upon transition to galactose-containing media, the promoter is instantaneously turned ‘on’ to achieve robust and synchronous induction of α-synuclein or ApoE4 expression. This highly regulated induction provides a robust window for the determination of both efficacy (amplitude of protective effect) and potency (concentration of protective effect) of cytoprotective compounds.
(§5) Re-suspended compound stocks were subsequently arrayed into 384 well compound plates using automated pipetting. All other wells not receiving stock compound were filled with 10 μL of 100% DMSO using an automated plate filler (Multidrop Combi). An 11 point, 2-fold serial dilution was then performed using the robotic platform. Compound assay plates were covered with foil and stored at −20° C. until use.
(§6) Each strain was handled according to standard protocols and cultured in media composed of CSM (complete synthetic media), YNB (yeast nitrogenous base), and a 2% (w/v) carbon source (either glucose, raffinose, or galactose).
(§7) In a standard yeast assay, a single-use aliquot of cells was thawed on ice and diluted into CSM/glucose (5 mL). Cultures were grown for 8 hours at 30° C. This pre-growth enables the yeast to exit the thaw and begin to grow without expressing aSyn or ApoE4. After 8 hours, cell density (OD600) was determined and cultures diluted to an OD600 of 0.01 in CSM/raffinose for an overnight culture phase at 30° C. During this period, the active glucose repression of the GAL1 promoter was relieved; however, expression of the α-Syn/ApoE4 genes were not yet induced. After ˜16 hours of growth, cultures attain an OD600 of 0.4-0.8 and were ready to apply to assay plates containing compound.
(§8) Compound profiling assays were executed in clear-bottom 384 well plates. First, compound plates were thawed at room temperature for 45′, centrifuged at 1,000×g for 1 minute, and the foil removed. Clear 384 well assay plates were then filled with 15 μL of CSM/galactose. […] The pin tool was washed iteratively with both 50% DMSO and 100% ethanol between each assay plate. After delivering compound to each assay plate, the overnight CSM/raffinose aSyn or ApoE4 cultures were added at a 2X cell density (0.04 for aSyn and 0.08 for ApoE4) in CSM/galactose to achieve a final assay OD600 of 0.02 and 0.04 for aSyn and ApoE, respectively. The cultures (15 μL per well) were then dispensed to the compound -containing 384 well assay plates using an automated plate filler. Plates were incubated in a humidified 30° C. incubator for 40 or 24 hours for aSyn and ApoE4, respectively. The ODsoo of each assay plate was then read with a microplate reader (e.g., Perkin Elmer Envision).
(§9) The efficacy and potency of compounds were calculated according to the following. Raw data (OD600 values) were first background corrected to account for OD600 contributed by the plate and media itself. The efficacy (percent above DMSO, herein referred to as “Emax”) was calculated according to the equation: (Experimental well−DMSO control well)/(DMSO control well)*100. […] Normalized dose-response data was fit with a logistic regression curve using Spotfire (TIBCO), or similar curve-fitting software package. EC50 values were then reported along with EMax to provide both efficacy and potency measures for each analog and enable further compound design.

[10] = system: yeast strains expressing the human α-synuclein; assay: Yeast α-synuclein toxicity rescue assay (OD600 growth); settings: 40 h; for EC50: read-out: α-Syn EC50; for Emax: read-out: α-Syn Emax
Text: as §4, §5, §6, §7, §8, §9

| SMILES | % Rescue (normalized by FK506 max rescue) ([1]; 0.01 μM) | % Rescue (normalized by FK506 max rescue) ([1]; 0.1 μM) | % Rescue (normalized by FK506 max rescue) ([1]; 0.3 μM) | % Rescue (normalized by FK506 max rescue) ([1]; 1 μM) | growth of the strain expressing yeast OLE1 (percent of the DMSO-treated condition) [2] | growth of SCD1-expressing yeast (percent of the DMSO-treated condition) [3] | growth of SCD5-expressing yeast (percent of the DMSO-treated condition) [4] | rescue of αSyn toxicity in yeast models [5] | OLE1 % Max Inhibition [6] | IC50 [7] | SCD1 % Max Inhibition [7] | IC50 [8] | SCD5 % Max Inhibition [8] | EC50 [9] | Emax [9] | EC50 [10] | Emax [10] | IC50 [6] |
| --- | --- | --- | --- | --- | --- | --- | --- | --- | --- | --- | --- | --- | --- | --- | --- | --- | --- | --- |
| Cc1nn(C)c2cc(-c3noc(C4CCN(C(=O)CNC(=O)c5ccccc5)CC4)n3)ccc12 [Example 40, N-(2-(4-(3-(1,3-dimethyl-1H-indazol-6-yl)-1,2,4-oxadiazol-5-yl)piperidin-1-yl)-2-oxoethyl)benzamide] | 107% | 137% | 105% | 77% | – | – | – | – | – | – | – | – | – | – | – | – | – | – |
| C[C@@H]1C[C@@H]([C@H](O)CC2CC(=O)NC(=O)C2)C(=O)[C@@H](C)C1 [Cyclohexamide, cycloheximide] | – | – | – | – | inhibited growth of all three strains with the same potency | inhibited growth of all three strains with the same potency | inhibited growth of all three strains with the same potency | – | – | – | – | – | – | – | – | – | – | – |
| C=CC[C@@H]1/C=C(\C)C[C@H](C)C[C@H](OC)[C@H]2O[C@@](O)(C(=O)C(=O)N3CCCC[C@H]3C(=O)O[C@H](/C(C)=C/[C@@H]3CC[C@@H](O)[C@H](OC)C3)[C@H](C)[C@@H](O)CC1=O)[C@H](C)C[C@@H]2OC [FK506, tacrolimus] | – | – | – | – | – | – | – | rescue αSyn toxicity | – | – | – | – | – | – | – | – | – | – |
| CCOc1ccc(-c2noc(C3CCN(C(=O)CNC(=O)c4ccccc4)CC3)n2)cc1OC [Example 155, N-(2-(4-(3-(4-ethoxy-3-methoxyphenyl)-1,2,4-oxadiazol-5-yl)piperidin-1-yl)-2-oxoethyl)benzamide] | −23% | 83% | 44% | 10% | – | – | – | – | – | – | – | – | – | – | – | – | – | – |
| CCOc1ccc(-c2noc(C3CCN(C(=O)CNC(=O)c4ccccc4)CC3)n2)cc1OC [Compound 155] | – | – | – | – | – | – | – | – | 1.65% | > 45 µM | 98.25% | 33.8 µM | 67.35% | 2.16 µM | 865% | 0.011 µM | 556% | – |
| O=C(NCC(=O)N1CCC(c2nc(-c3ccc(Cl)c(Cl)c3)no2)CC1)c1ccccc1 [compound 23] | – | – | – | – | – | – | – | – | – | 33.6 µM | – | > 45 µM | – | 6.51 µM | 466% | 7.68 µM | 182% | > 45 µM |
| COc1ccc(-c2noc(C3CCN(C(=O)CNC(c4ccccc4)C(F)(F)F)CC3)n2)cc1OC (stereo not drawn) [Compound 34] | – | – | – | – | – | – | – | – | 76.89% | > 45 µM | 42.55% | > 45 µM | 5.37% | – | 596% | 11.1 µM | 562% | > 45 µM |
| O=C(NCC(=O)N1CCC(c2nc(-c3ccc(F)cc3)no2)CC1)c1ccccc1 [Compound 41] | – | – | – | – | – | – | – | – | 85.45% | 38.7 µM | 55.28% | > 45 µM | 43.51% | – | 400% | 10.9 µM | 211% | > 45 µM |
| CCOc1ccc(-c2noc(C3CCN(C(=O)NC4CC4c4ccccc4)CC3)n2)cc1OC (stereo not drawn) [compound 80] | – | – | – | – | – | – | – | – | – | > 45 µM | – | > 45 µM | – | 6.01 µM | 262% | 3.32 µM | 188% | > 45 µM |
| COc1ccc(-c2noc(C3CCN(C(=O)C4CC(=O)N(c5ccc(C)c(C)c5)C4)CC3)n2)cc1OC (stereo not drawn) [compound 19] | – | – | – | – | – | – | – | – | – | > 45 µM | – | > 45 µM | – | 5.63 µM | 891% | 2.43 µM | 574% | > 45 µM |
| CCOc1ccc(-c2noc(C3CCN(C(=O)[C@H]4CC(=O)N(c5ccccc5)C4)CC3)n2)cc1OC [compound 85] | – | – | – | – | – | – | – | – | – | > 45 µM | – | > 45 µM | – | 17 µM | 602% | 12.6 µM | 486% | > 45 µM |
| COc1ccc(-c2noc(C3CCN(C(=O)CNC(=O)C4CCCCC4)CC3)n2)cc1OC [Compound 48] | – | – | – | – | – | – | – | – | 8.16% | 39.3 µM | 63.58% | > 45 µM | 75.26% | 2.94 µM | 874% | 1.47 µM | 615% | > 45 µM |
| COc1ccc(-c2noc(N3CCC(C(=O)NCCc4ccccc4)CC3)n2)cc1OC [Compound 49] | – | – | – | – | – | – | – | – | 34.89% | > 45 µM | 61.29% | > 45 µM | 63.18% | 4.34 µM | 942% | 1.47 µM | 636% | > 45 µM |
